Assay results published in the Kinase Knowledgebase extract (Sharma et al. 2016).
One block for each compound: values may come before it.

Experiments:
CDK2 [1] = biological target: CDK2 (UniProt P24941); test: Enzyme Assay
CDK2 [2] = biological target: CDK2 (UniProt P24941); test: Enzyme Assay; remark: listed apart in the source
EGFR (human) [3] = biological target: EGFR (human) (UniProt P00533); details: hn5
EGFR (human) [4] = biological target: EGFR (human) (UniProt P00533)
ROCK2 (human) [5] = biological target: ROCK2 (human) (UniProt O75116)
[6] = biological target: EGFR (human), P00533 [WT]
ROCK2 (human) [7] = biological target: ROCK2 (human) (UniProt O75116); test: Enzyme Assay
ROCK2 (human) [8] = biological target: ROCK2 (human) (UniProt O75116); test: Enzyme Assay; remark: listed apart in the source
EGFR (human) [9] = biological target: EGFR (human) (UniProt P00533); details: a431
CDK2 (human) [10] = biological target: CDK2 (human) (UniProt P24941)
EGFR [11] = biological target: EGFR (UniProt P00533)
PIK3CA (human) [12] = biological target: PIK3CA (human) (UniProt P42336); test: Inhibition of PIK3CA Kinase Activity (FP Assay)
EGFR (human) [13] = biological target: EGFR (human) (UniProt P00533); details: A431
PIK3CA (human) [14] = biological target: PIK3CA (human) (UniProt P42336); test: Inhibition of PIK3CA Kinase Activity in HeLa Cells
EGFR (human) [15] = biological target: EGFR (human) (UniProt P00533); remark: listed apart in the source
EGFR [16] = biological target: EGFR (UniProt P00533); remark: listed apart in the source
EGFR (human) [17] = biological target: EGFR (human) (UniProt P00533); details: kb
EGFR (human) [18] = biological target: EGFR (human) (UniProt P00533); details: hn5; remark: listed apart in the source
[19] = biological target: PIK3CA (human), P42336 [Assessment of PIK3CA (Mutant) Kinase Activity in MCF-7.1 Cell Line]; test: Assessment of PIK3CA (Mutant) Kinase Activity in MCF-7.1 Cell Line; details: mcf-7
PIK3CA = PIK3CA (UniProt P42336); test: PIK3CA Inhibition
CDK2 (human) [20] = biological target: CDK2 (human) (UniProt P24941); test: Enzyme Assay
CDK2 (human) [21] = biological target: CDK2 (human) (UniProt P24941); test: Enzyme Assay; remark: listed apart in the source
EGFR (human) [22] = biological target: EGFR (human) (UniProt P00533); remark: listed apart in the source
MAPK14 (human) [23] = biological target: MAPK14 (human) (UniProt Q16539); test: Enzyme Assay
MAPK14 (human) [24] = biological target: MAPK14 (human) (UniProt Q16539); test: Enzyme Assay; remark: listed apart in the source
EGFR [25] = biological target: EGFR (UniProt P00533); remark: listed apart in the source
[26] = system: MAPK14 (sprague-dawley rat); test: p38-mediated TNF-alpha Inhibition (Sprauge-Dawley Rats); details: dose or concentration not given here
EGFR (human) [27] = biological target: EGFR (human) (UniProt P00533); remark: listed apart in the source
EGFR (human) [28] = biological target: EGFR (human) (UniProt P00533); remark: listed apart in the source
EGFR (human) [29] = biological target: EGFR (human) (UniProt P00533); details: a431; remark: listed apart in the source
EGFR (human) [30] = biological target: EGFR (human) (UniProt P00533); details: a549

Sequence of ROCK2 (human) (O75116 whole entry, looked up): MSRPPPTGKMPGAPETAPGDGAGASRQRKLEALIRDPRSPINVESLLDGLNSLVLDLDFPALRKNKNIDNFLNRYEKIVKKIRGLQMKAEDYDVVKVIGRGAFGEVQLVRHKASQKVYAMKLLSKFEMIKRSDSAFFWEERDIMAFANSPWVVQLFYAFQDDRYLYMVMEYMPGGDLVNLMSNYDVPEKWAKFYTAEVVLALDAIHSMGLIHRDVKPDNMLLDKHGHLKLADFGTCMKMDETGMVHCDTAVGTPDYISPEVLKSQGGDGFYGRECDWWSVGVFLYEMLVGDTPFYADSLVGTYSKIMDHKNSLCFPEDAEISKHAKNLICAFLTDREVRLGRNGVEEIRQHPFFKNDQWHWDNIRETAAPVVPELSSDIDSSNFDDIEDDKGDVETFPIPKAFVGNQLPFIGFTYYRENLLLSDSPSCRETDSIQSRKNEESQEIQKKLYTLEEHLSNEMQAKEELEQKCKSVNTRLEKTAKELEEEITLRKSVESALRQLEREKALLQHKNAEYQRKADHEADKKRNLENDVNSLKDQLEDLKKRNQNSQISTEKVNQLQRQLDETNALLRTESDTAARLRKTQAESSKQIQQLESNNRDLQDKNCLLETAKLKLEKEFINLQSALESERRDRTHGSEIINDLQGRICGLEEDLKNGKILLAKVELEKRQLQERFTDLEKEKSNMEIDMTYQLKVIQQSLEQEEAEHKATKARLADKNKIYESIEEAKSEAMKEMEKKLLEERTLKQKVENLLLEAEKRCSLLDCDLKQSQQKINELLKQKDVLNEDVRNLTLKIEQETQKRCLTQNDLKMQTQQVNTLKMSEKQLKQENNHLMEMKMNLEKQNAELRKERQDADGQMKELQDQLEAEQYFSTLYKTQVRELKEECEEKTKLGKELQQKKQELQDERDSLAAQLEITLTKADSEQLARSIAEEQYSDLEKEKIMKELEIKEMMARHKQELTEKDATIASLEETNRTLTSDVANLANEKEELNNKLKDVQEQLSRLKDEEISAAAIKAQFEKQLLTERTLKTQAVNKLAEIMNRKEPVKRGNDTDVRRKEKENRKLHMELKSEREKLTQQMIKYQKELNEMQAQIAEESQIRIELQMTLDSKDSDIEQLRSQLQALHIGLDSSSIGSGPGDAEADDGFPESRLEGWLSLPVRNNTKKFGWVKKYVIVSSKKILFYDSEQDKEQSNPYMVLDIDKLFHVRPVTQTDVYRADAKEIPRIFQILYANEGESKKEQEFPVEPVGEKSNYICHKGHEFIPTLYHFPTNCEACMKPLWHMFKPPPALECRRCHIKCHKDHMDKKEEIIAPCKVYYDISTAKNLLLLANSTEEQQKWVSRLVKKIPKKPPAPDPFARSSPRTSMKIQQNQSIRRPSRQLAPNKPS
Sequence of EGFR (human) (P00533 whole entry, looked up): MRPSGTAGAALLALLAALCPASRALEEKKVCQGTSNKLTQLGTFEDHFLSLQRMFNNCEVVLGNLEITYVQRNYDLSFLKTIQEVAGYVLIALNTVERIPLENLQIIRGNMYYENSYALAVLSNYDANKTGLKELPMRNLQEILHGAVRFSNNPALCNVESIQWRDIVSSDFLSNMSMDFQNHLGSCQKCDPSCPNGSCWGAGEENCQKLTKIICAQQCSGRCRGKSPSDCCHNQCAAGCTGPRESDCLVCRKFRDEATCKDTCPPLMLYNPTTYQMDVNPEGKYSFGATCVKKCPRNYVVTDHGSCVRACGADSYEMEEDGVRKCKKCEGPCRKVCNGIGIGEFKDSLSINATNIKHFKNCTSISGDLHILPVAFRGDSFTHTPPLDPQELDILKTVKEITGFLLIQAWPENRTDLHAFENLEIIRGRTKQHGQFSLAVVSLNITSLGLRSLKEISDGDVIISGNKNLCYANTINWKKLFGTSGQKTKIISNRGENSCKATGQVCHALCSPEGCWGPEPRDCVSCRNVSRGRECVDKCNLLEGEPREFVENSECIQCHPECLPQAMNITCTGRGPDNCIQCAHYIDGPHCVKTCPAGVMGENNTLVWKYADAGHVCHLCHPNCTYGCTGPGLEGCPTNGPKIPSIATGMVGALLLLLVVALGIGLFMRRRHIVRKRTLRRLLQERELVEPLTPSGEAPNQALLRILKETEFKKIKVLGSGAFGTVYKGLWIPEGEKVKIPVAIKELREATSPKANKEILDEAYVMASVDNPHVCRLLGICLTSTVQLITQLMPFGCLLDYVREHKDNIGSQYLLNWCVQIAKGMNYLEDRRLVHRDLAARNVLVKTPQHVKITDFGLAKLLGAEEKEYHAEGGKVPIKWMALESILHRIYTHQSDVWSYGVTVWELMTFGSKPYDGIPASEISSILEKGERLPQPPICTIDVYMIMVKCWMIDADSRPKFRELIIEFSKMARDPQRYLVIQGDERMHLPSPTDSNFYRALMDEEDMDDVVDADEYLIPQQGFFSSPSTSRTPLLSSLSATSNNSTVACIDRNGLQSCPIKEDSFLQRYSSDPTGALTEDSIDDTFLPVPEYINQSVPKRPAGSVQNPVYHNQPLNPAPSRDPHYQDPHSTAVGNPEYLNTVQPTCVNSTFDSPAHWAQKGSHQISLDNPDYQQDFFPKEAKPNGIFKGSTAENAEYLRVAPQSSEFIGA
Sequence of EGFR (P00533 whole entry, looked up): as above
Sequence of MAPK14 (human) (Q16539 whole entry, looked up): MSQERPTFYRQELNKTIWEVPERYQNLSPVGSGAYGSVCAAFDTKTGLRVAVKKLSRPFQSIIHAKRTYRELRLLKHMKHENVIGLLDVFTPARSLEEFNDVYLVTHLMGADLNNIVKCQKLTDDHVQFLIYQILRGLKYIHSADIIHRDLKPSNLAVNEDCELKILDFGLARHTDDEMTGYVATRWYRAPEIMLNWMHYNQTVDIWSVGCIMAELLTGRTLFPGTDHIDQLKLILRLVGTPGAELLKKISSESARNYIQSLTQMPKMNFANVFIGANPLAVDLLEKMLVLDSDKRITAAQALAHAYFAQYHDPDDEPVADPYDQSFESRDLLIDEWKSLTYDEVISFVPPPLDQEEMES

Compound: COc1ccc2cnc(Nc3ccc(N4CCCCC4)cc3)nc2c1C(C)C
IC50 (CDK2 [1]): 264 nM
IC50 (CDK2 [2]): 4100 nM

Compound: Cn1ccnc1S(=O)(=O)CCNCc1ccc(-c2ccc3ncnc(Nc4ccc(OCc5cccc(F)c5)c(Cl)c4)c3c2)o1
IC50 (EGFR (human) [3]): 500 nM
IC50 (EGFR (human) [4]): 17 nM

Compound: CC(C)OC(=O)Cc1cccc(NC(=O)c2cccc(-c3cc(C(=O)Nc4ccncc4F)ccc3CN)c2)c1
IC50 (ROCK2 (human) [7]): < 1 nM
IC50 (ROCK2 (human) [8]): < 1 nM

Compound: COc1cc2ncnc(Nc3ccc(F)c(Cl)c3)c2cc1OCCN1CCOCC1
IC50 (EGFR [11]): 10 nM

Compound: COC[C@H]1OC(=O)/C(=C/N(CCN(C)C)C(C)(C)C)C2=C(O)C(=O)C3=C([C@H](OC(C)=O)C[C@@]4(C)C3CC[C@@H]4O)[C@]21C (stereo partly specified)
IC50 (PIK3CA (human) [12]): 9.6 nM

Compound: O=C1Nc2ccc3ncsc3c2C1=NNc1ccc(S(=O)(=O)O)cc1
IC50 (CDK2 (human) [10]): 540 nM

Compound: CCn1cnc2c(Nc3cccc(Cl)c3)nc(N[C@@H]3CCCC[C@@H]3N)nc21
IC50 (EGFR [16]): > 10000 nM

Compound: CNC(=O)CN1CCC(Oc2cc3c(Nc4ccc(F)c(Cl)c4F)ncnc3cc2OC)CC1
IC50 (EGFR (human) [17]): 9 nM

Compound: Cc1nc(N)ncc1-c1nc(N2CCOCC2)c2sc(CN3CCN(S(C)(=O)=O)CC3)cc2n1
IC50 [19]: 290 nM

Compound: CCCCCCCCCCCCCCCCCCOC[C@H](COP(=O)(O)O[C@H]1[C@H](O)[C@@H](O)CC[C@H]1O)OC
IC50 (PIK3CA): 800 nM

Compound: CO[C@H]1[C@@H](OC)C[C@H](C)[C@@H](OC)C2=CC(=O)C=C(NC(=O)/C(C)=C/C=C/[C@H](OC)[C@H](OC(N)=O)/C(C)=C/[C@@H]1C)C2=O
activity (CDK2 (human) [20]; 1.0 µM): 138%
activity (CDK2 (human) [20]; 10.0 µM): 83%
activity (CDK2 (human) [21]; 1.0 µM): 104%
activity (CDK2 (human) [21]; 10.0 µM): 91%

Compound: Cc1ccc(-c2ccnc(C(C)(C)O)n2)cc1-n1c(C)nc(OCc2ncc(F)cc2F)c(Cl)c1=O
IC50 (MAPK14 (human) [23]): 566 nM
IC50 (MAPK14 (human) [24]): 40 nM

Compound: COc1ccc(OC)c(COc2ccc(O)c(C(=O)O)c2)c1
IC50 (EGFR [25]): > 100000 nM

Compound: CNCC#Cc1cccc(C(=O)c2cnn(-c3ccc(F)cc3)c2N)c1
inhibition [26]: 86%

Compound: COC(=O)c1cc(OCc2cc(OC)ccc2OC)ccc1O
IC50 (EGFR [25]): > 100000 nM

Compound: Cc1nc(N)ncc1-c1nc(N2CCOCC2)c2sc(C(C)(C)O)cc2n1
IC50 [19]: 280 nM

Compound: COc1cc2ncnc(Nc3ccc(F)c(Cl)c3)c2cc1OCCN1CCN(C)CC1
IC50 (EGFR [11]): 10 nM

Compound: CCCCCCCCCCCCCCCC(=O)OC[C@H](COP(=O)(O)O[C@H]1[C@H](O)[C@@H](O)[C@H](O)C[C@H]1O)OC(=O)CCCCCCCCCCCCCCC
IC50 (PIK3CA): 38400 nM

Compound: COc1cc(OC)c2c(=O)n(-c3cccc(C(=O)NC4CCCC4)c3)ccc2c1
IC50 (EGFR (human) [28]): 2120 nM
IC50 (EGFR (human) [29]): 15300 nM
IC50 (EGFR (human) [30]): 18600 nM

Further lines, results first:

IC50 (ROCK2 (human) [5]): 2.66 nM
Compound: COc1cccc([C@@H](C)NC(=O)c2ccc3c(c2)oc2c(C)nccc23)c1

IC50 [6]: 5500 nM
Compound: Brc1cccc(Nc2ccnc3ccccc23)c1

IC50 (EGFR (human) [9]): 490 nM
Compound: C#Cc1cccc(Nc2c([N+](=O)[O-])cnc3cc(OCc4ccccc4)c(OC)cc23)c1

IC50 (CDK2 (human) [10]): 250 nM
Compound: N=C(N)NS(=O)(=O)c1ccc(NC2=Cc3ccc(C(=O)c4c(Cl)cccc4Cl)cc3C2)cc1

IC50 (EGFR (human) [13]): 49200 nM
EC50 (PIK3CA (human) [14]): 21600 nM
Compound: Nc1nc(N)c2c(n1)[nH]c1cccc(Sc3ccccc3)c12

IC50 (EGFR (human) [15]): < 100 nM
Compound: C=CC(=O)Nc1ccc(-n2nc(-c3ccc(Cl)c(Cl)c3)c3c(N)ncnc32)cc1

IC50 (EGFR (human) [18]): 100 nM
Compound: OCc1ccc(-c2cc3ncnc(Nc4ccc(OCc5cccc(F)c5)c(Cl)c4)c3s2)o1

IC50 (EGFR (human) [22]): 147 nM
Compound: Nc1nc(Nc2ccccc2)c2c(n1)[nH]c1ccccc12

IC50 (EGFR (human) [18]): 100 nM
Compound: CS(=O)(=O)CCNCc1cc(-c2cc3ncnc(Nc4ccc(OCc5cccc(F)c5)c(Cl)c4)c3s2)cs1

IC50 (EGFR (human) [3]): 1550 nM
IC50 (EGFR (human) [4]): 19 nM
Compound: O=S(=O)(CCNCc1ccc(-c2ccc3ncnc(Nc4ccc(OCc5cccc(F)c5)c(Cl)c4)c3c2)o1)c1ccccn1

IC50 (EGFR (human) [27]): 1600 nM
Compound: Cc1cc(N2CCOCC2)cc2[nH]c(-c3c(NC[C@@H](O)c4ccccc4Cl)cc[nH]c3=O)nc12
